Test results as given in US8053627B2, “Methods for treating demyelination disorders” (University of Chicago, priority 2005, dated 2011).

Tested on: BIP, CHOP, p-eIF-2α
Test: ER stress markers in corpus callosum during remyelination (real time PCR, Western blot)
Assay type: in vivo
Details: DOX− mice
Experimental: Repression of remyelination by IFN-γ is associated with ER stress. […] To determine whether IFN-γ interferes with endoplasmic reticulum (ER) function in remyelinating oligodendrocytes, the expression of ER stress markers was monitored in the corpus callosum of mice expressing IFN-γ. The study was performed using the transgenic mice described in Example 1.
The level of mRNA encoding ER stress associated genes binding immunoglobulin protein/78 KDa glucose regulated protein (BIP/GRP78) and the CAATT enhancer-binding protein homologous protein/growth and DNA damage protein 153 (CHOP/GADD153), was determined using real time PCR, as described in Example 1 in the corpus callosum of the cuprizone treated mice of Example 1. The probes, sense and antisense primers that were used were: […]
The level of phosphorylated eIF-2α, which inhibits nucleotide exchange on the eIF-2 complex and attenuates most protein synthesis, was analyzed by Western blot, and the expression was colocalized by immunostaining CC1 antibodies as described above. Western blot analysis was performed as follows. The corpus callosum from 3 mice was rinsed in ice cold phosphate-buffered saline (PBS) and pooled, and immediately homogenized in 5 volumes of Triton X-100 buffer (20 mM HEPES pH 7.5, 150 mM NaCl, 1% Triton X-100, 10% glycerol, 1 mM EDTA, 10 mM tetrasodium pyrophosphate, 100 mM NaF, 17.5 mM β-glycerophosphate, 10 mM phenylmethylsulfonyl fluoride, 15 μg/ml aprotonin, and 6 μg/ml pepstatin A) using a motorized homogenizer. After incubation on ice for 15 min, the extracts were cleared by centrifugation at 14,000 rpm twice for 30 min each. The protein content of each extract was […] by protein assay (Bio-Rad). The extracts (40 μg) were separated by sodium dodecyl sulfate-polyacrylamide gel electrophoresis and transferred to nitrocellulose. […] The following primary antibodies were used: anti-eIF-2α (1:500; Santa Cruz, Santa Cruz, Calif.), anti-p-eIF-2α (1:1000, Cell signaling Technology), anti-CHOP (1:500; Santa Cruz) and anti-actin (1:1000; Sigma, St Louis, Mo.).

“IFN-γ: pleotropic cytokine secreted by activated T lymphocytes and natural killer cells; delivered to the CNS by transgene or added as recombinant protein” was tested, and the “BIP mRNA increase vs control DOX+” value was “approximately 2 fold”, the “CHOP mRNA increase vs control DOX+” value was “approximately 2 fold” and the “CHOP protein elevation (Western blot)” value was “approximately 1.7 fold”. The “phosphorylated eIF-2α elevation (Western blot)” value was “approximately 1.8 fold”.
